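Cultured in 96-well plates, cells were exposed to test compound for 48 hours across five concentrations. GI50 = concentration required for 50% inhibition of growth. TGI denotes the concentration required for complete inhibition of growth.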
Legend:
Assay in all cases: growth of human tumour cells (NCI), 48 h
HOP-62 NSCLC = test system: HOP-62 NSCLC
SNB-19 CNS = test system: SNB-19 CNS
COLO 205 colon = test system: COLO 205 colon
UACC-257 melanoma = test system: UACC-257 melanoma
OVCAR-8 ovarian = test system: OVCAR-8 ovarian
SN12C renal = test system: SN12C renal
MALME-3M melanoma = test system: MALME-3M melanoma
HT29 colon = test system: HT29 colon
HL-60(TB) leukemia = test system: HL-60(TB) leukemia
TK-10 renal = test system: TK-10 renal

| Structure (SMILES) | GI50 (HOP-62 NSCLC) [µM] | TGI (HOP-62 NSCLC) [µM] | GI50 (SNB-19 CNS) [µM] | TGI (SNB-19 CNS) [µM] | GI50 (COLO 205 colon) [µM] | TGI (COLO 205 colon) [µM] | GI50 (UACC-257 melanoma) [µM] | TGI (UACC-257 melanoma) [µM] | GI50 (OVCAR-8 ovarian) [µM] | TGI (OVCAR-8 ovarian) [µM] | GI50 (SN12C renal) [µM] | TGI (SN12C renal) [µM] | GI50 (MALME-3M melanoma) [µM] | TGI (MALME-3M melanoma) [µM] | GI50 (HT29 colon) [µM] | TGI (HT29 colon) [µM] | GI50 (HL-60(TB) leukemia) [µM] | TGI (HL-60(TB) leukemia) [µM] | GI50 (TK-10 renal) [µM] | TGI (TK-10 renal) [µM] |
| --- | --- | --- | --- | --- | --- | --- | --- | --- | --- | --- | --- | --- | --- | --- | --- | --- | --- | --- | --- | --- |
| Nc1ncn([C@H]2C[C@H](OP(=O)(O)OC[C@H]3O[C@@H](n4cnc5c(=O)[nH]c(N)nc54)C[C@@H]3O)[C@@H](CO)O2)c(=O)n1 | 9.27 | > 100 | > 100 | > 100 | 41.4 | > 100 | > 100 | > 100 | 26.6 | > 100 | 51.4 | > 100 | > 100 | > 100 | 47.1 | > 100 | > 100 | > 100 | > 100 | > 100 |
| O=[N+]([O-])c1oc2ccc3ccccc3c2c1CCO |  | > 67.1 |  | 68.4 |  | 1.46 |  | 4.2 |  | 23.1 |  | > 52 |  | 3.84 |  | 25.7 |  | 13 |  | 27.7 |
| COc1ccc(Cn2cc3c(c2-c2cc(OC)c(OC)c(OC)c2)CCc2c(CO)noc2-3)cc1 | 0.397 | 25.7 | 0.43 | 21.4 | 0.339 | 4.28 | 16.5 | 50.2 | 0.417 | 19.6 | 0.765 | 19.2 | 2.46 | 29.3 | 0.323 | 13 | 0.231 | 0.656 | 17.7 | 55.2 |
| Cc1ccccc1C(C(=O)NC1CCCCC1)N(C(=O)CNc1ncccc1F)c1cccc(F)c1 (stereo not drawn) | 14.8 | > 64.3 | 17.2 | > 87.3 | > 100 | > 100 | > 100 | > 100 | 19 | > 100 | > 79.9 | > 100 | > 100 | > 100 | > 100 | > 100 | > 100 | > 100 | > 56.4 | > 100 |
| O=C1NC(=NCCc2ccccn2)S/C1=C\c1ccc2ncccc2c1 | 13.9 | > 25 | 11.1 | > 25 | 9.05 | > 25 | 15.4 | > 25 | 12.6 | > 25 | 9.33 | > 25 | 18.1 | > 25 | 13.8 | > 25 | 7.66 | > 25 | 7.33 | 24.5 |
| COc1cccc(C2SCc3nc4ccccc4n32)c1 (stereo not drawn) |  | > 100 |  | > 100 |  | > 100 |  | > 100 |  | > 100 |  | > 100 |  | > 100 |  | > 100 |  | > 100 |  | 55.1 |
| CC(C)Cc1ccc(C(C)C(=O)NCc2ccc(Cn3c(=O)sn(CCCI)c3=O)cc2)cc1 (stereo not drawn) | 1.53 | 3.6 | 1.45 | 2.78 | 0.271 | 1.14 | 1.28 | 2.7 | 0.523 | 1.85 | 0.646 | 1.97 | 1.41 | 2.8 | 0.238 | 0.75 | 0.775 | > 22.7 | 0.373 | 0.95 |
| Cc1ccsc1-c1ccc2c(c1)COC2(CCCN(C)C)c1ccc(F)cc1 (stereo not drawn) | 3.16 | 12.8 | 2.77 | 10.3 | 1.92 | 4.19 | 1.94 | 3.98 | 3.28 | 13.2 | 3.59 | 15.5 | 1.39 | 2.8 | 2.29 | 8.45 | 1.93 | 4.59 | 3.04 | 12.8 |
| COc1cc(O)c2c(c1)C(=O)C1=C(C2=O)C(O)C[C@@](C)(O)C1 (stereo partly drawn) |  | 21.2 |  | 14.1 |  | 0.844 |  | 1.24 |  | 6.15 |  | 2.65 |  | 2.11 |  | 2.39 |  | 1.5 |  | 6.14 |
| COc1cc(CCNC(=O)OC(C)(C)C)c2c(c1OC)SSSSS2 | 3.71 | 15.3 | 2.7 | 5.63 | 2.19 | 4.35 | 2.93 | 5.48 | 3.53 | 11.7 | 3.74 | 15.8 | 2.48 | 4.94 | 1.86 | 4.02 | 2.92 | 13.4 | 2.63 | 5.5 |
| CNC(=O)c1cccc(C#Cc2cncnc2Nc2ccc(OCc3cccc(F)c3)c(Cl)c2)c1 | 5.03 | 10.4 | 6.9 | > 25 | 7.5 | > 18.4 | 9.72 | > 25 | 7.3 | > 25 | 12 | > 25 | 9.31 | 24.6 | 8.64 | > 25 | > 25 | > 25 | 1.46 | 9.03 |
| COc1cc2nc3cc([N+](=O)[O-])ccc3c(NCCNCC(C)O)c2cc1OC (stereo not drawn) | 0.713 | 2.87 | 0.436 | 2.74 | 0.368 | 1.57 | 1.63 | 3.67 | 0.587 | 3.13 |  |  | 0.785 | 2.25 | 0.317 | 1.28 | 2.52 | 6.66 | 1.72 | 5.71 |
| CC(=O)N[C@@H](Cc1ccc(OP(=O)(O)O)cc1)C(=O)N[C@H]1CCC(=O)N2CCC[C@@H](C(=O)NCc3ccccc3)N2C1=O | > 25 | > 25 | > 25 | > 25 | > 25 | > 25 | > 25 | > 25 | > 25 | > 25 | > 25 | > 25 | > 25 | > 25 | > 25 | > 25 | > 25 | > 25 | > 25 | > 25 |
| O=C1C(c2ccccc2)=C(c2ccccc2)C(c2ccc(Sc3ccc(C4=C(c5ccccc5)C(=O)C(c5ccccc5)=C4c4ccccc4)cc3)cc2)=C1c1ccccc1 |  | > 100 |  | > 100 |  | > 100 |  | > 100 |  | > 100 |  | > 100 |  | > 100 |  | > 100 |  | > 100 |  | > 100 |
| O=C(CSSCC(=O)Nc1ccc(Br)cc1)Nc1ccc(Br)cc1 |  | 25.9 |  | 29.4 |  | 74 |  | 37.6 |  | 31.6 |  | 30.2 |  | 43 |  | 47.6 |  | 48.5 |  | 30.5 |
| COc1ccc(-c2cn(-c3cc(OC)c(OC)c(OC)c3)c(=O)[nH]2)cc1OC | > 100 | > 100 | > 100 | > 100 | > 100 | > 100 | > 100 | > 100 | > 100 | > 100 | > 100 | > 100 | > 100 | > 100 | > 100 | > 100 | > 100 | > 100 | > 100 | > 100 |
| Cc1cccc(Cl)c1NC(=O)c1cnc(Nc2cc(N3CCOCC3)cc(S(C)(=O)=O)c2)s1 | 0.198 | > 10 | > 4.95 | > 10 | 0.572 | > 10 | > 4.82 | > 10 | 0.516 | > 10 | 0.455 | > 10 | > 4.16 | > 10 | 0.203 | 0.663 | 9.76 | > 10 | 0.132 | 1.15 |
| C/C=C(\C)C(=O)O[C@H]1C=CC(=O)O[C@H]1COC(=O)[C@H](C)O | 19.8 | 35.4 | 12.1 | 27 | 3.07 | 15.5 | 14.7 | 30.8 | 12.2 | 28.3 | 12.9 | 28.3 | 5.5 | 15.8 | 3.76 | 17.4 | 2.34 | 6.9 | 10.8 | 24.3 |
| Cc1ccc(OCCOCCOCCOCCOCCOc2ccc(C)n(O)c2=S)c(=S)n1O | 0.0789 | > 84.6 | 0.118 | > 100 | 0.0428 | > 100 | 0.0425 | > 66.4 | 0.0384 | > 100 | 0.0496 | > 100 | 0.109 | > 34.6 | 0.0585 | > 100 | 0.0441 | 0.638 | 0.0826 | > 100 |
| COc1cc(/C=C/C(=O)c2c(-c3ccc(F)cc3)nc3sc(C)nn23)cc(OC)c1OC | 2.28 | 7.06 | 3.24 | 13.1 | 1.98 | 3.77 | 4.18 | 16.5 | 2.48 | 12.9 | 2.48 | 8.65 | 4.26 | 16.9 | 2.55 | 5.51 | 2.44 | 6.17 | 2.92 | 8.14 |

Source: PubChem BioAssay (NCI)
